# The supplement of paper PMC10307832
# How the values were obtained:
# Assay in all cases: relative viability (nuclei count vs DMSO), 5 days (fraction); higher = more cells survive
# Crenolanib + Bortezomib = compound: CC1(COc2ccc3c(c2)ncn3-c2ccc3cccc(N4CCC(N)CC4)c3n2)COC1 [Crenolanib] + CC(C)C[C@H](NC(=O)[C@H](Cc1ccccc1)NC(=O)c1cnccn1)B(O)O [Bortezomib] (partner 0.002 µM)
# In short: (§1)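 One day after seeding in 1536-well plates, lung cancer cell lines were dosed by pin tool. Dosing was either single-drug or a fixed anchor-drug dose plus five library-drug doses (not always all listed) in √10 steps. After 5 days, nuclei were stained in one fix-and-stain step and counted on 4× images, and relative viability is the nuclei count of treated wells over that of vehicle wells, given as the median of duplicate plates.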
# Crenolanib + Pictilisib = compound: CC1(COc2ccc3c(c2)ncn3-c2ccc3cccc(N4CCC(N)CC4)c3n2)COC1 [Crenolanib] + CS(=O)(=O)N1CCN(Cc2cc3nc(-c4cccc5[nH]ncc45)nc(N4CCOCC4)c3s2)CC1 [Pictilisib] (partner 1 µM)
# In short: as §1
# Crenolanib + Olaparib = compound: CC1(COc2ccc3c(c2)ncn3-c2ccc3cccc(N4CCC(N)CC4)c3n2)COC1 [Crenolanib] + O=C(c1cc(Cc2n[nH]c(=O)c3ccccc23)ccc1F)N1CCN(C(=O)C2CC2)CC1 [Olaparib] (partner 8 µM)
# In short: as §1
# Tivantinib + Dasatinib = compound: O=C1NC(=O)[C@@H](c2cn3c4c(cccc24)CCC3)[C@@H]1c1c[nH]c2ccccc12 [Tivantinib] + Cc1nc(Nc2ncc(C(=O)Nc3c(C)cccc3Cl)s2)cc(N2CCN(CCO)CC2)n1 [Dasatinib] (partner 0.075 µM)
# In short: as §1
Cell Line,relative viability (Crenolanib + Bortezomib; first compound 0.01 µM),relative viability (Crenolanib + Bortezomib; first compound 0.03162 µM),relative viability (Crenolanib + Bortezomib; first compound 0.1 µM),relative viability (Crenolanib + Bortezomib; first compound 0.3162 µM),relative viability (Crenolanib + Bortezomib; first compound 1 µM),relative viability (Crenolanib + Pictilisib; first compound 0.01 µM),relative viability (Crenolanib + Pictilisib; first compound 0.03162 µM),relative viability (Crenolanib + Pictilisib; first compound 0.1 µM),relative viability (Crenolanib + Pictilisib; first compound 0.3162 µM),relative viability (Crenolanib + Pictilisib; first compound 1 µM),relative viability (Crenolanib + Olaparib; first compound 0.01 µM),relative viability (Crenolanib + Olaparib; first compound 0.03162 µM),relative viability (Crenolanib + Olaparib; first compound 0.1 µM),relative viability (Crenolanib + Olaparib; first compound 0.3162 µM),relative viability (Crenolanib + Olaparib; first compound 1 µM),relative viability (Tivantinib + Dasatinib; first compound 0.01 µM),relative viability (Tivantinib + Dasatinib; first compound 0.03162 µM),relative viability (Tivantinib + Dasatinib; first compound 0.1 µM),relative viability (Tivantinib + Dasatinib; first compound 0.3162 µM)
201T,1.06,1.12,1.06,1.04,1.07,0.724,0.704,0.695,0.689,0.634,0.83,0.852,0.786,0.867,0.86,0.562,0.566,0.547,0.554
A549,–,–,–,–,–,0.608,0.545,0.554,0.689,0.506,0.474,0.317,0.329,0.421,0.365,–,–,–,–
A-427,0.961,1.12,0.987,1.01,1.03,0.747,0.674,0.642,0.582,0.651,0.79,–,0.759,0.847,0.629,0.677,0.731,0.712,0.686
ABC-1,0.289,0.353,0.331,0.308,0.253,0.837,0.63,0.83,0.692,0.686,1.01,0.78,0.614,0.668,0.625,0.629,0.742,0.566,0.516
BEN,0.821,0.644,0.733,0.881,0.761,0.664,0.574,0.51,0.522,0.609,1.15,0.96,0.966,1.01,1.05,0.293,0.308,0.382,0.359
CAL-12T,1.05,0.667,1.23,1.02,0.789,0.45,0.407,0.519,0.454,0.44,0.746,0.694,0.721,0.771,0.725,0.479,0.499,0.403,0.238
COR-L23,0.983,1.16,0.921,1.13,1.03,0.777,0.756,0.677,1.03,0.654,0.321,0.342,0.307,0.347,0.291,0.498,0.542,0.48,0.5
COR-L 105,0.95,0.863,0.646,0.825,0.676,0.455,0.363,0.341,0.514,0.411,0.729,0.641,0.643,0.751,0.584,0.42,0.287,0.334,0.216
Calu-6,1.06,0.97,1.03,1.1,1.02,1.04,0.91,0.978,1.15,0.968,0.596,0.494,0.529,0.643,0.556,–,–,–,–
